Measurements reported in article PMC12698445, “Phenolic profile of different solvent extracts of Reseda alba L. and evaluation of anti-quorum sensing, antioxidant, and enzyme inhibition activities” (Frontiers in Nutrition, 2025).

Molecular target: T1, fungal tyrosinase
T1 construct: gene PPO3; only 'fungal' printed
Assay: L-DOPA oxidation, […] nm
Assay type: biochemical
Conditions: L-DOPA substrate, pH 6.8, room temperature

O=c1cc(CO)occ1O [Kojic acid]
Tyrosinase / IC50: 23.80 ± 0.25 µg/mL
